# Test: Measurement of log P values by HPLC on reversed phase columns (methods [a] pH 2.3, [b] pH 2.7, [c] pH 7.8)
# Type: physicochemical
# Conditions: HPLC reversed phase
# Procedure: Measurement of log P-Values:
# Measurement of log P Values was Performed According EEC Directive 79/831 Annex V.A8 by HPLC (High Performance Liquid
# Chromatography) on reversed phase columns with the following methods: ^[a] Measurement was done at pH 2.3 with 0.1% phosphoric acid and acetonitrile as eluent with a linear gradient from 10% acetonitrile to 95% acetonitrile. ^[b] measurement of LC-MS was done at pH 2.7 with 0.1% formic acid in water and with acetonitrile (contains 0.1% formic acid) as eluent with a linear gradient from 10% acetonitrile to 95% acetonitrile. ^[c] Measurement with LC-MS was done at pH 7.8 with 0.001 molar ammonium hydrogen carbonate solution in water as eluent with a linear gradient from 10% acetonitrile to 95% acetonitrile.
# Calibration was done with linear alkan-2-ones (with 3 to 16 carbon atoms) with known log P-values (measurement of log P values using retention times with linear interpolation between successive alkanones). Lambda-max-values were determined using UV-spectra from 200 nm to 400 nm and the peak values of the chromatographic signals.
Compound,logP (method [b] (pH 2.7)),logP (method [c] pH 7.8)
O=C(N[C@@H]1CC[C@H]1c1ccc(Cl)cc1Cl)c1ncccc1Cl (relative stereo) [Example 257],3.69^[b],
O=C(N[C@@H]1CC[C@H]1c1ccc(Cl)cc1Cl)c1ncc(C(F)(F)F)cc1Cl (relative stereo) [Example 258],4.53^[b],
O=C(N[C@@H]1CC[C@@H]1c1ccc(Cl)cc1Cl)c1ncc(C(F)(F)F)cc1Cl (relative stereo) [Example 259],4.23^[b],
Cn1cc(C(=O)N[C@@H]2CC[C@H]2c2ccccc2Cl)c(C(F)F)n1 (relative stereo) [Example 262],2.72^[b],
Cn1cc(C(=O)N[C@@H]2CC[C@@H]2c2ccccc2C(F)(F)F)c(C(F)F)n1 (relative stereo) [Example 263],2.75^[b],
O=C(N[C@@H]1CC[C@H]1c1ccc(Cl)cc1Cl)c1ccccc1I (relative stereo) [Example 264],4.09^[b],
O=C(N[C@@H]1CC[C@H]1c1ccc(Cl)cc1Cl)c1ccc(Cl)cc1Cl (relative stereo) [Example 265],4.48^[b],
O=C(N[C@@H]1CC[C@@H]1c1ccc(Cl)cc1Cl)c1ccc(Cl)cc1Cl (relative stereo) [Example 266],4.16^[b],
O=C(N[C@@H]1CC[C@H]1c1ccccc1C(F)(F)F)c1c(F)cccc1F (relative stereo) [Example 267],3.24^[b],
O=C(N[C@@H]1C[C@@H]1c1ccc(Cl)cc1)c1c(F)cccc1F (relative stereo) [Example 268],2.64^[b],2.59^[c];
O=C(N[C@@H]1C[C@@H]1c1ccc(Cl)cc1)c1ccccc1F (relative stereo) [Example 269],2.79^[b],2.75^[c];
Cn1cc(C(=O)N[C@@H]2CCCC[C@H]2c2ccccc2C(F)(F)F)c(C(F)F)n1 (relative stereo) [Example 288],3.56^[b],
O=C(N[C@@H]1CCC[C@H]1c1ccccc1C(F)(F)F)c1cccnc1C(F)(F)F (relative stereo) [Example 289],3.27^[b],
O=C(N[C@@H]1CCC[C@@H]1c1ccc(C(F)(F)F)cc1)c1cccnc1 (relative stereo) [Example 298],2.46^[b],2.46^[c];
O=C(N[C@@H]1CCC[C@@H]1c1ccc(C(F)(F)F)cc1)c1ccccc1C(F)(F)F (relative stereo) [Example 302],3.83^[b],3.79^[c];
O=C(N[C@@H]1CCC[C@@H]1c1ccc(C(F)(F)F)cc1)c1ccccc1Br (relative stereo) [Example 303],3.73^[b],3.68^[c];
O=C(N[C@@H]1CCC[C@@H]1c1ccc(C(F)(F)F)cc1)c1c(F)cccc1F (relative stereo) [Example 304],3.51^[b],3.47^[c];
O=C(N[C@@H]1CCC[C@@H]1c1ccc(C(F)(F)F)cc1)c1ccccc1[N+](=O)[O-] (relative stereo) [Example 306],3.31^[b],3.27^[c];
O=C(N[C@@H]1CCC[C@@H]1c1ccc(C(F)(F)F)cc1)c1cccnc1Cl (relative stereo) [Example 315],3.04^[b],2.98^[c];
O=C(N[C@@H]1CCC[C@@H]1c1ccccc1F)c1ccccc1Cl (relative stereo) [Example 316],3.12^[b],3.08^[c];
CC(C)Oc1ccc([C@H]2CCC[C@H]2NC(=O)c2ccccc2Cl)cc1 (relative stereo) [Example 317],3.74^[b],3.73^[c];
CC(C)Oc1ccc([C@H]2CCC[C@H]2NC(=O)c2ccccc2[N+](=O)[O-])cc1 (relative stereo) [Example 318],3.30^[b],3.25^[c];
O=C(N[C@@H]1CCC[C@@H]1c1ccccc1F)c1ccccc1Br (relative stereo) [Example 319],3.18^[b],3.14^[c];
